Results from patent US5512549A, “Glucagon-like insulinotropic peptide analogs, compositions, and methods of use” (Eli Lilly and Company, priority 1994, dated 1996).

What was measured:
beagles [1] = assay: Dog S.C. Hyperglycemic (150 mg/dl) Clamp Test; assay type: in vivo; conditions: S.C. 10 μg/kg
Protocol: (§1) a) Hyperglycemic Clamp Studies
(§2) Experiments were conducted in overnight-fasted, conscious, adult (1-2 years of age) male and female beagles weighing 8-15 kg. At least ten days prior to the study, animals were anesthetized with isoflurane, and a cut-down was made in the left or right inguinal region. Silastic catheters were inserted into the femoral artery and the proximal caudal femoral vein and secured with 4-0 silk suture. The free ends of the catheters were passed subcutaneously to the back using a trocar needle. The catheters were then filled with a glycerol/heparin solution (3:1, v/v; final heparin concentration of 250 KIU/ml), and the free ends were knotted and placed in a subcutaneous pocket to allow complete closure of the skin. Keflex® was administered both pre-operatively (20 mg/kg, IV and 20 mg/kg, I.M.) and post-operatively (250 mg, p.o. once daily for seven days) to prevent infections. Torbugesic (1.5 mg/kg, I.M.) was administered post-operativelyto control pain.
(§3) Blood was drawn just prior to the study day to determine the health of the animal. Only animals with hematocrits above 38% and leukocyte counts below 16,000/mm^3 were used.
(§4) The afternoon before the experiment, the free ends of the catheters were exteriorized from the subcutaneous pocket through a small incision made under local anesthesia (2% lidocaine), and the dog was fitted with a tether system jacket and collar assembly.
(§5) The morning of the experiment, the contents of the catheters were aspirated, the catheters were flushed with saline, and extension lines (protected by a stainless steel tether) were attached to the catheters. On mornings of IV injection experiments, an over-the-needle, teflon catheter was inserted percutaneously into a cephalic vein in preparation for the administration of an IV bolus of test substance. The dog was placed in a metabolic cage, and the catheter extension lines and tether were attached to a swivel system to allow the dog to move freely about the cage. At this time (-60 minutes), an exogenous infusion of glucose (50% w/v in water) was begun through the chronic venous catheter. Glucose was infused in a descending stepwise fashion over the first six minutes of the study to rapidly raise the plasma glucose concentration to 150 mg/dl. Plasma glucose concentrations were determined every 2.5 to 7.5 minutes throughout the remainder of the study, and the glucose infusion rate was adjusted appropriately to maintain the plasma glucose concentration at 150 mg/dl.
(§6) Sixty minutes after the start of the glucose infusion (time 0), test substance was administered either intravenously (1.0, 2.9, 5.0 or 10.0 μg/kg; dose dissolved in 2 ml of saline containing 0.3% dog albumin, w/v) through the previously inserted teflon catheter or subcutaneously (10 μg/kg; 150 μM in phosphate buffered saline) in the dorsal aspect of the neck.
(§7) Arterial blood samples (3.5 ml) were taken at -30, -15, 0, 2.5, 5, 7.5, 10, 12.5, 15, 20, 30, 45, 60, 75, 90, 105 and 120 minutes during the IV studies and at -30, -15, 0, 3, 6, 9, 12, 15, 20, 30, 45, 60, 75, 90, 105 and 120 minutes during the SC studies. Samples were collected in vacuum blood collection tubes containing disodium EDTA and immediately placed on ice. To prevent proteolytic cleavage of GLP-1(7-37) in the plasma samples, 1.5 ml of the EDTA containing blood were transferred to a polypropylene tube containing 40 μl of aprotinin (10,000 KIU/ml) and mixed well. The samples were centrifuged, and the resulting plasma was transferred to polypropylene test tubes and stored on ice for the duration of the study.
(§8) At the conclusion of the experiment, the animal was anesthetized (isoflurane); the catheters were flushed with fresh saline and filled with the glycerol/heparin mixture; the free ends of the catheters were knotted and placed subcutaneously as described earlier; and antibiotic was administered (300 mg Keflex®, I.M.). […]

rat GLP-1 receptor = target: T1, rat GLP-1 receptor (Rattus norvegicus, UniProt P32301); assay: cAMP Assay (in vitro receptor binding assay) on membrane preparation; assay type: biochemical; conditions: cAMP production, CHO membranes expressing rat GLP-1 receptor; mean ± spread
T1 construct: expressed in transfected cells; host or cells: CHO DXB-11 (Chinese hamster ovary) cells, used as a membrane preparation
T1 sequence (P32301 22-463): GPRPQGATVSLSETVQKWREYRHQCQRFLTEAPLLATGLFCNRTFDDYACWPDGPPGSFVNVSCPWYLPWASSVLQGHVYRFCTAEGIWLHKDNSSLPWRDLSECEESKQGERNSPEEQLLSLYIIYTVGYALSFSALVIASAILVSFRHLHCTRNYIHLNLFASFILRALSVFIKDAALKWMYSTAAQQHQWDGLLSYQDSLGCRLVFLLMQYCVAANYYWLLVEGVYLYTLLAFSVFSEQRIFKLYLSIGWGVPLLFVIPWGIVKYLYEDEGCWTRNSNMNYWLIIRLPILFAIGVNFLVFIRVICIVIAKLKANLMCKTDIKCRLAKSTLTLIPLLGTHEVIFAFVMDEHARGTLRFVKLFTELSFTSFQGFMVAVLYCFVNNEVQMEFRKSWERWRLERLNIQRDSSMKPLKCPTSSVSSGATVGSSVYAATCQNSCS
Protocol: A sample of the membrane preparation was preincubated with a test compound or a control compound in buffer (25 mM HEPES, 0.2% (w/v) BSA, pH 7.6) at 32° C. for 10 minutes. Reaction buffer (final concentration: 25 mM HEPES, 0.2% (w/v) BSA, 2.6 mM Mg, 0.8 mMATP, 0.1 mM GTP, 5 mM creatine phosphate, creatine kinase 50 U/ml, 0.2 mM IBMX, pH 7.6) was added and incubated for an additional 30 minutes. Incubations were stopped by adding 10 mM EDTA.
Production of cAMP was assayed using a fluorescent tracer-immuno assay method. In brief, after the incubation was stopped, fluorescent tracer (cAMP-b phycoerythrin conjugate) was added followed by the addition of affinity purified anti-cAMP rabbit antiserum. After incubation at room temperature for 45 minutes, anti-rabbit IgG coated assay beads were added and incubated for an additional 15 minutes. Plates were then evacuated and read on a Pandex PFCIA reader.
Fluorescent intensity values were correlated to rate of cAMP production (pmol/min/mg).

beagles [2] = assay: Dog I.V. Hyperglycemic (150 mg/dl) Clamp Test; assay type: in vivo; conditions: I.V. 1.0 μg/kg
Protocol: as §1, §2, §3, §4, §5, §6, §7, §8

[3] = tested on: Sprague Dawley or Zucker Diabetic Fatty rats; assay: Rat IV Glucose (1 g/kg) Tolerance Test; assay type: in vivo; conditions: for Insulin Change AUC: 0-15 min
Protocol: a) Glucose Tolerance Tests
Experiments were conducted in overnight-fasted, conscious, male Sprague Dawley (Charles River) or Zucker Diabetic Fatty (Genetic Models, Inc.) rats weighing approximately 250 (Sprague Dawley rats) or 300 (Zucker Diabetic Fatty rats) grams. Four to five days prior the study, rats were anesthetized with isoflurane, and a polyethylene (PE50) catheter was inserted into the right jugular vein. The catheter was secured with a wound clip, filled with saline containing heparin (2% sodium heparin), and closed with a small stainless steel plug.
After a sixteen-hour fast, twelve chronically cannulated rats were separated into four groups of three rats per group. 0.4 ml of blood was taken from the tail vein, collected into a microtainer tube containing lithium heparin, and immediately placed on ice (zero minute sample). A glucose bolus (1.0 g/kg; 50% glucose (w/v) in water) was administered via the indwelling jugular cannula, and the cannula was rinsed with 200 μl of saline. Twenty seconds later a bolus of test substance 100 μl/100 g body weight of either vehicle (saline containing 0.3% (w/v) bovine serum albumin) or vehicle containing analog! was administered through the jugular cannula, and the cannula was rinsed as before. Rats were bled from the tail again at 2, 5, 10, 20 and 30 minutes after the administration of the glucose bolus, and the samples were treated as described above. At the end of the experiment, blood samples were centrifuged, and the plasma was collected.
Plasma glucose concentrations were determined the day of the experiment using a coupled hexokinase procedure in a clinical chemistry analyzer. Plasma for insulin determinations were diluted with zero calibrator and frozen at -20° C. until time for analysis. Insulin concentrations were determined using a commercial radioimmunoassay kit with rat insulin as the standard.
Insulin change (the change in insulin from the baseline value) was calculated as the difference between the insulin concentration at time t and the insulin concentration at zero time. The area under the insulin change curve was calculated using the trapezoidal rule. Plasma glucose change (the increase in plasma glucose above the baseline value) was calculated as the difference between the plasma glucose concentration at time t and the plasma glucose concentration at zero time. The area under the plasma glucose change curve was calculated using the trapezoidal rule. Values are listed as the mean ± the standard error of the mean (SEM).

[4] = 120 minute test period, mean ± SEM

Arg^26 -Lys^34 -N^ε -octanoyl-GLP-1(8-37)OH [Arg^26-Lys^34-N^ε-octanoyl-GLP-1(8-37)OH]
GIR Change AUC (beagles [1]; 0-120 min, mean ± SEM): 659 ± 182 mg/kg | Insulin Change AUC (beagles [1]; 0-120 min, mean ± SEM): 11 ± 26 ng·min/mL | Max Insulin Change (beagles [1]; [4]): 0.6 ± 0.4 ng/mL | Duration of Insulin Effect (beagles [1]; time average insulin change consistently >0.5 ng/ml): not active

N- Imidazole-α,α-dimethyl-acetyl!GLP-1 (8-37)OH [α,α-imidazoacetyl-GLP-1(8-37)OH]
% Relative Potency (rat GLP-1 receptor): 108.2 ± 22.4%

GLP-1(7-36)NH2
GIR Change AUC (beagles [2]; 0-60 min, mean ± SEM): 414 ± 73 mg/kg | Insulin Change AUC (beagles [2]; 0-60 min, mean ± SEM): 32 ± 8 ng·min/mL | Max Insulin Change (beagles [2]; [4]): 3.4 ± 0.6 ng/mL | Duration of Insulin Effect (beagles [2]; time average insulin change consistently ≥0.5 ng/ml): 2.5 min | Insulin Change at 10 min ([3]; IV dose 0.2 mg/kg): 1.8 ng/mL | Max Insulin Change ([3]; IV dose 0.2 mg/kg): 4.0 ng/mL | Insulin Change AUC ([3]; IV dose 0.2 mg/kg): 34 ± 4 ng·min/mL | Insulin Change at 10 min ([3]; IV dose 0.3 mg/kg): 2.2 ng/mL | Max Insulin Change ([3]; IV dose 0.3 mg/kg): 6.1 ng/mL | Insulin Change AUC ([3]; IV dose 0.3 mg/kg): 50 ± 13 ng·min/mL | Insulin Change at 10 min ([3]; IV dose 0.4 mg/kg): 3.8 ng/mL | Max Insulin Change ([3]; IV dose 0.4 mg/kg): 7.7 ng/mL | Insulin Change AUC ([3]; IV dose 0.4 mg/kg): 73 ± 14 ng·min/mL | Insulin Change at 10 min ([3]; IV dose 0.6 mg/kg): 3.4 ng/mL | Max Insulin Change ([3]; IV dose 0.6 mg/kg): 7.7 ng/mL | Insulin Change AUC ([3]; IV dose 0.6 mg/kg): 67 ± 11 ng·min/mL | Insulin Change at 10 min ([3]; IV dose 0.8 mg/kg): 4.1 ng/mL | Max Insulin Change ([3]; IV dose 0.8 mg/kg): 11.3 ng/mL | Insulin Change AUC ([3]; IV dose 0.8 mg/kg): 97 ± 25 ng·min/mL | Insulin Change at 10 min ([3]; IV dose 1.0 mg/kg): 3.9 ng/mL | Max Insulin Change ([3]; IV dose 1.0 mg/kg): 11.4 ng/mL | Insulin Change AUC ([3]; IV dose 1.0 mg/kg): 89 ± 16 ng·min/mL | Insulin Change at 10 min ([3]; IV dose 2.0 mg/kg): 4.9 ng/mL | Max Insulin Change ([3]; IV dose 2.0 mg/kg): 11.7 ng/mL
